Measurements as given in the NIST ThermoML archive (doi:10.1021/je034213q).

Details: Gas

FC(F)C(F)(F)F [pentafluoroethane]
Details | speed of sound [m/s]
277.16 K, 20.94 kPa | 144.94
277.16 K, 40.92 kPa | 144.49
277.16 K, 60.65 kPa | 144.05
277.16 K, 80.97 kPa | 143.59
277.16 K, 101.09 kPa | 143.13
277.16 K, 121.01 kPa | 142.67
277.16 K, 141.08 kPa | 142.2
277.16 K, 161.07 kPa | 141.73
277.16 K, 180.84 kPa | 141.26
277.16 K, 198.8 kPa | 140.83
303.14 K, 10.51 kPa | 151.5
303.14 K, 20.76 kPa | 151.31
303.14 K, 40.75 kPa | 150.97
303.14 K, 60.79 kPa | 150.62
303.14 K, 80.27 kPa | 150.28
303.14 K, 100.78 kPa | 149.93
303.14 K, 120.91 kPa | 149.57
303.14 K, 140.84 kPa | 149.22
303.14 K, 160.84 kPa | 148.87
303.14 K, 180.99 kPa | 148.5
303.14 K, 200.32 kPa | 148.16
303.14 K, 300.92 kPa | 146.32
303.14 K, 398.68 kPa | 144.47
303.14 K, 465.23 kPa | 143.19
313.15 K, 10.5 kPa | 153.84
313.15 K, 20.68 kPa | 153.68
313.15 K, 40.59 kPa | 153.37
313.15 K, 60.28 kPa | 153.06
313.15 K, 80.59 kPa | 152.74
313.15 K, 100.57 kPa | 152.43
313.15 K, 120.77 kPa | 152.11
313.15 K, 140.78 kPa | 151.79
313.15 K, 160.71 kPa | 151.47
313.15 K, 180.78 kPa | 151.14
313.15 K, 200.47 kPa | 150.82
313.15 K, 300.67 kPa | 149.18
313.15 K, 400.7 kPa | 147.49
313.15 K, 480.34 kPa | 146.12
323.14 K, 10.7 kPa | 156.16
323.14 K, 20.42 kPa | 156.02
323.14 K, 40.64 kPa | 155.73
323.14 K, 60.8 kPa | 155.44
323.14 K, 80.84 kPa | 155.16
323.14 K, 100.74 kPa | 154.87
323.14 K, 120.86 kPa | 154.58
323.14 K, 140.92 kPa | 154.29
323.14 K, 160.95 kPa | 154
323.14 K, 180.33 kPa | 153.71
323.14 K, 200.71 kPa | 153.41
323.14 K, 300.75 kPa | 151.93
323.14 K, 400.83 kPa | 150.41
323.14 K, 501.38 kPa | 148.85
343.13 K, 40.76 kPa | 160.33
343.13 K, 60.62 kPa | 160.09
343.13 K, 80.21 kPa | 159.86
343.13 K, 100.97 kPa | 159.61
343.13 K, 120.73 kPa | 159.37
343.13 K, 140.89 kPa | 159.13
343.13 K, 160.51 kPa | 158.89
343.13 K, 180.9 kPa | 158.65
343.13 K, 197.5 kPa | 158.44
343.13 K, 300.29 kPa | 157.19
343.13 K, 400.48 kPa | 155.94
343.13 K, 500.26 kPa | 154.68
343.13 K, 600.3 kPa | 153.41
343.14 K, 20.77 kPa | 160.58
343.14 K, 40.77 kPa | 160.34
343.14 K, 59.94 kPa | 160.11
343.14 K, 80.48 kPa | 159.86
343.14 K, 100.55 kPa | 159.62
343.14 K, 120.9 kPa | 159.38
343.14 K, 140.63 kPa | 159.14
343.14 K, 160.64 kPa | 158.9
343.14 K, 180.84 kPa | 158.65
343.14 K, 200.46 kPa | 158.41
343.14 K, 300.55 kPa | 157.19
343.14 K, 399.77 kPa | 155.96
343.14 K, 501.32 kPa | 154.68
